Laboratory results from patent publication US20260263418A1, “AGENTS FOR ENHANCING DOPAMINE RELEASE, IMPROVING MOTOR CONTROL FUNCTION, IMPROVING MOTOR LEARNING FUNCTION AND IMPROVING ACTIVITY MOTIVATION” (MEIJI CO., LTD., priority 2023, published 2026).
Where “and” joins values, the source holds several entries; their conditions need not be identical. Equal values may be shown once. Peptide text beside a SMILES is read from it.

Test system: PC12 cells
Test: Dopamine release from PC12 cells after dipeptide addition (LC-MS/MS of supernatant)
Format: cell-based
Settings: 6 hours; for Change in dopamine concentration compared to the non-stimulated group / Dopamine concentration after stimulation, Mean ± Standard deviation / Percentage relative to non-stimulated group: 1 mM dipeptide; for Change in dopamine concentration compared to the non-stimulated group: Student's t-test, significance level 5%; for Dopamine concentration after stimulation, Mean ± Standard deviation: 3 wells; for Dopamine concentration after stimulation, Mean ± Standard deviation / Dopamine concentration after stimulation: 37° C., supernatant; for Percentage relative to non-stimulated group: dopamine concentration, non-stimulated group = 100; for Dopamine concentration after stimulation: individual wells, 1 mM dipeptide in medium
Procedure: PC12 cells were seeded in a 96-well plate at a cell count of 2×10^4 cells/well using DMEM containing 10% by volume of HS (Horse Serum), 10% by volume of FBS (Fetal Bovine Serum), 100 units/mL of penicillin and 100 μg/mL of streptomycin. The cells were cultured at 5% CO2 by volume and 37° C. The cells were cultured for 3 to 5 days to ensure that they were confluent, and then used for experiments.
The culture medium was removed from PC12 cells, which were washed twice with PBS (Phosphate Buffered Saline). The wells of the 96-well plate were divided into 5 groups: non-stimulated group (5 wells), WF administration group (3 wells), WH administration group (3 wells), WM administration group (3 wells) and WR administration group (3 wells). The WR administration group corresponds to Inventive Example, and the non-stimulated group, WF administration group, WH administration group and WM administration group correspond to Comparative Examples.
DMSO (Dimethyl Sulfoxide) was added to the same medium as the medium used to culture PC12 cells, thereby preparing a medium containing 1% by […] of DMSO. Dipeptide WF was added to the same medium as the medium used to culture PC12 cells, thereby preparing a medium containing 1 mM dipeptide WF. In the same way, a medium containing 1 mM dipeptide WH, a medium containing 1 mM dipeptide WM and a medium containing 1 mM dipeptide WR were prepared. The medium containing 1% by volume of DMSO (Dimethyl Sulfoxide) was added to the non-stimulated group, the medium containing 1 mM dipeptide WF was added to the WF administration group, the medium containing 1 mM dipeptide WH was added to the WH administration group, the medium containing 1 mM dipeptide WM was added to the WM administration group, and the medium containing 1 mM dipeptide WR was added to the WR administration group. These groups were incubated at 37° C. for 6 hours. After the incubation, supernatant of each well was collected.
Each supernatant was transferred onto ice. To each supernatant, 25 μL of 2M perchloric acid was added for protein removal, and after 10 minutes, 50 μL of 1M sodium acetate was added for neutralization. After 15 minutes, centrifugation was performed at 4° C. and 20000 G for 20 minutes. 100 μL of each supernatant was collected, and after added with 10 μL of 2 mM 3,4-dihydroxybenzylamine (DHBA) as an internal standard, it was passed through a chromatodisk to obtain a sample. The obtained sample was used for liquid chromatography-tandem mass spectrometry (LC-MS/MS).
LC-MS/MS was performed using a Triple TOF 6600+ system manufactured by SCIEX under the following measurement conditions. A calibration curve was prepared using pure products, and after correcting the peak area of dopamine with the peak area of the internal standard (DHBA), the dopamine concentration (nM) in each sample was calculated from the calibration curve. • Equipment: Triple TOF 6600+ System (SCIEX, Massachusetts, USA) • Column: Inertsil (registered trademark) ODS-4 (GL Sciences, Tokyo, Japan) • Eluent A: 0.1% aqueous solution of formic acid • Eluent B: 0.1% methanol solution of formic acid • Gradient conditions: As listed in Table 1
Data are presented as mean±standard deviation. For statistical processing, Student's t-test was used for comparisons between the non-stimulated group and each administration group. The significance level was set at 5%.

Compound	Change in dopamine concentration compared to the non-stimulated group	Dopamine concentration after stimulation, Mean ± Standard deviation	Percentage relative to non-stimulated group	Dopamine concentration after stimulation
N=C(N)NCCC[C@H](NC(=O)[C@@H](N)Cc1c[nH]c2ccccc12)C(=O)O [WR, tryptophanylarginine] (H-Trp-Arg-OH)	significant increase in dopamine concentration	36.24 ± 2.10 nM	154.23%	38.47 nM and 34.30 nM and 35.95 nM
N[C@@H](Cc1c[nH]c2ccccc12)C(=O)N[C@@H](Cc1c[nH]cn1)C(=O)O [WH, tryptophanylhistidine] (H-Trp-His-OH)	did not exhibit such a significant increase in dopamine concentration	22.15 ± 4.13 nM	94.26%	26.89 nM and 19.36 nM and 20.20 nM
CSCC[C@H](NC(=O)[C@@H](N)Cc1c[nH]c2ccccc12)C(=O)O [WM, tryptophanylmethionine] (H-Trp-Met-OH)	did not exhibit such a significant increase in dopamine concentration	24.57 ± 7.88 nM	104.55%	20.58 nM and 19.48 nM and 33.64 nM
N[C@@H](Cc1c[nH]c2ccccc12)C(=O)N[C@@H](Cc1ccccc1)C(=O)O [WF, tryptophanylphenylalanine] (H-Trp-Phe-OH)	did not exhibit such a significant increase in dopamine concentration	19.56 ± 1.35 nM	83.23%	18.97 nM and 18.60 nM and 21.10 nM
